Data as given in patent publication US9206405B2, “Glycosyl hydrolase with beta-xylosidase and beta-glucosidase activities and uses thereof” (Institute of Materia Medica, Chinese Academy of Medical …, priority 2010, dated 2015).

Columns and labels:
[1] = test system: recombinant yeast GS115-3.5K-P1-2; assay: Hydrolysis of 7-xylosyltaxane mixtures by the recombinant yeast; format: cell-based, Pichia pastoris; details: 7-xylosyltaxane mixtures about 8 mg/ml, 24 h, 30-55° C., HPLC
Text: The recombinant yeast GS115-3.5K-P1-2 (transformant of the recombinant expression plasmid pPIC3.5K-P1-2) obtained in Example 4 was applied in the following bioconversion reaction, wherein the substrates to be converted were 7-xylosyltaxane mixtures, the main components of which included 62.12% of 7-xylosyl-10-deacetyltaxol, 12.75% of 7-xylosyl-10-deacetylcephalomannine, 17.04% of 7-xylosyl-10-deacetyltaxol C, and 8.09% of other components.
The method for culturing the recombinant strain was the same as in Example 5. 16 ml 7-xylosyltaxane mixtures (at a concentration of 100 mg/ml) were added to 200 ml recombinant strain reaction solution with the final concentration of the 7-xylosyltaxane mixtures being about 8 mg/ml (supersaturated). The recombinant yeast introduced with the null vector was taken as the negative control. The solution was mixed by magnetic stirring for 24 h at 30˜55° C. […] The yields of the three main products: 10-deacetyltaxol (DT): 3.27 mg/ml; 10-deacetylcephalomannine (DC): 0.74 mg/ml; and 10-deacetyltaxol C (DTC): 0.92 mg/ml.

[2] = test system: recombinant strain GS115-9K-P1-2; assay: β-xylosidase activity of the recombinant yeast strain on PNP-Xyl; format: cell-based, Pichia pastoris
Procedure: FIG. 4: Comparison of the recombinant strains GS115-9K-P1-2 and GS115-9K (control) on β-xylosidase activity.
BMGY medium (contains per liter: 10.00 g yeast extract, 20.00 g peptone, 100 mM potassium phosphate buffer, pH 6.0, 10 ml glycerol) and BMMY medium (10 ml glycerol in BMGY medium was replaced with 10 ml methanol as the carbon source) were used as the seed culture and fermentation media respectively for the recombinant yeast. The resistant strain obtained by screening was inoculated into 10 ml seed culture medium and incubated at 30° C., 220 rpm for 18 h. The cultures were washed 2 times by centrifugation and the cell pellet was transferred into 50 ml fermentation medium. Cells were cultured at 30° C., 220 rpm, and 1% methanol was added every 24 h for induction of expression of the recombinant protein. Meanwhile the enzyme activity of the recombinant strain was detected regularly. […]

[3] = test system: LXYL-P1 (or P1) protein; assay: Specificity test on different glycoside (chromogenic) substrates hydrolysis by purified LXYL-P1; format: biochemical, Lentinula edodes M95.33; details: 20 min; for hydrolysis of chromogenic substrate by P1 protein (in words): 50° C., pH 5.0; for Relative activity (% control): control = PNP-Xyl; for Relative activity (% control) / OD405 value: 5 mM substrate, pH 5.0, 50° C., purified P1; for OD405 value: release of p-nitrophenol at 405 nm
Procedure: In addition to the β-xylosidase activity, especially the activity of hydrolyzing 7-xylosyltaxanes, the specificity of the LXYL-P1 (or P1) on other glycoside substrates was also tested by employing four chromogenic substrates: p-nitrophenyl-β-D-glucopyranoside (PNP-Glc), p-nitrophenyl-β-D-galactopyranoside (PNP-Gal), p-nitrophenyl-α-L-arabinopyrano side (PNP-Ara), and p-Nitrophenyl-β-D-xylopyranoside (PNP-Xyl, serving as a control). Each of the chromogenic substrates was prepared in 50 mM acetate buffer to obtain 5 mM solution (pH 5.0).
To the purified P1 protein diluent (25 μl) obtained in example 1, 100 μl of each chromogenic substrate was added. The reaction was performed at 50° C. for 20 min and stopped with 2 ml saturated solution of sodium borate. Release of p-nitrophenol (absorbance value) was measured at 405 nm.

[4] = test system: Leifsonia shinshuensis DICP 16; details: 1 mg XDT in 2 ml cell suspension, 21 h, 30° C.; cited from earlier work
[5] = test system: recombinant yeast GS115-9K-P1-2; assay: Hydrolysis of 7-xylosyl-10-deacetyltaxol (XDT) by the recombinant yeast; format: cell-based, Pichia pastoris; details: XDT 0.625 mg/ml, 12 h, 30-55° C.
Procedure: The recombinant yeast GS115-9K-P1-2 (transformant of the recombinant expression plasmid pPIC-9K-P1-2) obtained in example 4 was cultured and induced for 5 days in the manner of Example 4. Cells were centrifuged, harvested and washed, and then was, directly or after lyophilization, suspended with 50 mM acetate buffer or phosphate buffer (65 mg wet cells/ml or 16 mg dry cells/ml, pH 3.5˜7.5), and used as the hydrolytic reaction solution. To 20 ml of the cell reaction solution, 0.5 ml solution of 7-xylosyl-10-deacetyltaxol (XDT) was added with the final concentration of XDT being 0.625 mg/ml. The resultant was incubated in a water shaking bath for 12 h at 30˜55° C.
Extraction was performed with ethyl acetate after the reaction was completed.

[6] = test system: LXYL-P1 (or P1); assay: XDT conversion by Phenyl Sepharose peak LXYL-P1, thin layer chromatography; format: biochemical, Lentinula edodes M95.33; details: TLC, FIG. 1B
Text: (§1) FIG. 1: Phenyl Sepharose hydrophobic column chromatography of the β-xylosidase-β-glucosidase from the protein extract of the fungus M95.33 (A), and thin layer chromatography (TLC) of XDT conversion (B). • A: P1. active elution peak of LXYL-P1; P2. active elution peak of LXYL-P2. […] XDT (control); 2. DT (control); 3. XDT bioconversion by LXYL-P1; 4. XDT bioconversion by LXYL-P2.
(§2) The fraction eluted in the above step was applied to a Phenyl Sepharose hydrophobic column (1.6 cm×20 cm) equilibrated with 50 mM Tris-HCl buffer (pH 8.0) containing 1 M […]. Elution was performed with Tris-HCl buffer (50 mM, pH8.0) having a linear gradient of 1.0˜0 M (NH4)2SO4 (at a flow rate of 2 ml/min). Fractions having enzymatic activity were collected and dialyzed with Tris-HCl buffer (50 mM, pH8.0).
(§3) Within penal B, 1 was XDT control; 2 was DT control; 3 was XDT conversion by P1; and 4 was XDT conversion by P2.

[7] = test system: Moraxella sp. (ATCC55475); details: XDT 0.25 mg/ml, wet cells 91.5 mg/ml, 21 h, 28° C.; cited from earlier work
[8] = test system: LXYL-P2 (or P2); assay: XDT conversion by Phenyl Sepharose peak LXYL-P2, thin layer chromatography; format: biochemical, Lentinula edodes M95.33; details: TLC, FIG. 1B
Text: as §1, §2, §3

[9] = test system: recombinant yeast GS115-3.5K-P1-2; assay: Hydrolysis of XDB by the recombinant yeast; format: cell-based, Pichia pastoris; details: 8 mg XDB/ml, 16 mg dry cells/ml, 24 h, 30-55° C., HPLC
Procedure: The strain was the same as that in Example 6 and the substrate was 7-xylosyl-10-deacetylbaccatin III (XDB). 1.5 ml cell reaction solution contained 16 mg dry cells per milliliter and 8 mg XDB per milliliter. The mixture was incubated in a water shaking bath for 24 h at 30˜55° C.

In the case of `CCCCCC(=O)N[C@@H](c1ccccc1)[C@@H](O)C(=O)O[C@H]1C[C@@]2(O)[C@@H](OC(=O)c3ccccc3)[C@@H]3[C@]4(OC(C)=O)CO[C@@H]4C[C@H](O[C@@H]4OC[C@@H](O)[C@H](O)[C@H]4O)[C@@]3(C)C(=O)[C@H](O)C(=C1C)C2(C)C` [XDTC, 7-Xylosyl-10-deacetyltaxol C], the conversion ratio [1] is reported as 92.00%.
With `O=[N+]([O-])c1ccc(O[C@@H]2OC[C@@H](O)[C@H](O)[C@H]2O)cc1` [PNP-Xyl, p-nitrophenyl-β-D-xylopyranoside] the “ability of recombinant strain to hydrolyze the substrate” value ([2]; cell suspension, 5 mM PNP-Xyl, 20 min, 30-55° C.) was “has the ability to hydrolyze”, the “enzymatic activity in supernatant of fermentation broth of recombinant strain” value ([2]; supernatant of the fermentation broth) was “no obvious enzymatic activity was detected” and the “hydrolysis of chromogenic substrate by P1 protein (in words)” value [3] was “could hydrolyze”. The “Relative activity (% control)” value [3] was 100 % control and the OD405 value [3] was 0.745.
For `CC(=O)O[C@@]12CO[C@@H]1C[C@H](O[C@@H]1OC[C@@H](O)[C@H](O)[C@H]1O)[C@@]1(C)C(=O)[C@H](O)C3=C(C)[C@@H](OC(=O)[C@H](O)[C@@H](NC(=O)c4ccccc4)c4ccccc4)C[C@@](O)([C@@H](OC(=O)c4ccccc4)[C@H]21)C3(C)C` [XDT, 7-Xylosyl-10-deacetyltaxol], the “XDT remaining after reaction (HPLC)” value [4] is given as “No XDT was found to be remaining”, the conversion ratio ([5]; HPLC) is given as 98.80% and the “substrate transformation by TLC” value ([5]; TLC) is given as “completely transformed”. The “hydrolysis of XDT into DT by P1” value [6] was “could hydrolyze”, the “XDT remaining after reaction (HPLC)” value [7] was “No XDT was found to be remaining” and the conversion ratio [1] was 92.45%. The “hydrolysis of XDT into DT by P2” value [8] was “could hydrolyze”.
In the case of `O=[N+]([O-])c1ccc(O[C@@H]2O[C@H](CO)[C@H](O)[C@H](O)[C@H]2O)cc1` [PNP-Gal, p-nitrophenyl-β-D-galactopyranoside], the “Relative activity (% control)” value [3] is reported as 0 % control and the OD405 value [3] is reported as 0.000.
`CC=C(C)C(=O)NC(c1ccccc1)C(O)C(=O)OC1CC2(O)C(OC(=O)c3ccccc3)C3C4(OC(C)=O)COC4CC(OC4OCC(O)C(O)C4O)C3(C)C(=O)C(O)C(=C1C)C2(C)C` (stereo not shown) [XDC, 7-Xylosyl-10-deacetylcephalomannine] gave a conversion ratio [1] of 93.60%.
For `CC(=O)O[C@@]12CO[C@@H]1C[C@H](O[C@@H]1OC[C@@H](O)[C@H](O)[C@H]1O)[C@@]1(C)C(=O)[C@H](O)C3=C(C)[C@@H](O)C[C@@](O)([C@@H](OC(=O)c4ccccc4)[C@H]21)C3(C)C` [XDB, 7-Xylosyl-10-deacetylbaccatin III], the conversion ratio [9] was 86.54%.
With `O=[N+]([O-])c1ccc(O[C@@H]2O[C@H](CO)[C@@H](O)[C@H](O)[C@H]2O)cc1` [PNP-Glc, p-nitrophenyl-β-D-glucopyranoside] the “hydrolysis of chromogenic substrate by P1 protein (in words)” value [3] was “could hydrolyze”, the “Relative activity (% control)” value [3] was 217 % control and the OD405 value [3] was 1.615.
In the case of `O=[N+]([O-])c1ccc(O[C@@H]2OC[C@H](O)[C@H](O)[C@H]2O)cc1` [PNP-Ara, p-nitrophenyl-α-L-arabinopyranoside], the “Relative activity (% control)” value [3] is reported as 0 % control and the OD405 value [3] is reported as 0.000.
